Measurements published in patent US20140179606A1, “LEFT VENTRICULAR DIASTOLIC FUNCTION IMPROVING AGENT” (priority 2011, published 2014).

Key:
[1] = test system: acute heart failure model; experiment: Evaluation of hemodynamics in acute heart failure model; type: in vivo, beagle; settings: for Peak Negative dP/dt Change Ratio (%): indication of left ventricular diastolic function, 60 minutes after administration; for Peak Negative dP/dt Change Ratio (%) / Peak Positive dP/dt Change Ratio (%) / Systemic Vascular Resistance Change Ratio (%) / Left Ventricular End-Diastolic Pressure Change Ratio (%): continuous iv; for Peak Negative dP/dt Change Ratio (%) / Peak Positive dP/dt Change Ratio (%): two increasing doses; for Peak Positive dP/dt Change Ratio (%): indication of left ventricular systolic function; for Systemic Vascular Resistance Change Ratio (%): indication of afterload; for Left Ventricular End-Diastolic Pressure Change Ratio (%): indication of preload
Experimental: The acute heart failure model was produced by the following method. A male beagle (the weight was more than 10 kg) was anesthetized with pentobarbital sodium (30 mg/kg, intravenous administration), and then a tracheal catheter was introduced to the trachea and connected to a ventilator. The frequency of breath of the ventilator was set to 15 strokes per minute; the amount of ventilation was set to 20 mL/kg per stroke, and the respiration was controlled by using a mixed gas (Air:O2=3:0.2 as an indication). The animal was fixed with the lateral position and the hair of the left chest area, left and right femoral areas and cervical region was cut. Pentobarbital sodium (5 mg/kg/hr) was intravenously administered continuously from right cephalic vein, and the anesthesia was continued. The chest was opened at the left fourth rib, and the ascending aorta origin was exfoliated. Lactated Ringer's solution was intravenously administered continuously from the catheter inserted to the left femoral vein (5 mL/min). Further, in order to prevent the arrhythmia from occurring, propranolol hydrochloride (0.3 mL/min) was administered continuously together with the volume overload (mixed with lactated Ringer's solution) until the completion of the experiment. The left anterior descending coronary artery (LAD) was ligated 30 minutes after the administration of lactated Ringer's solution. After the hemodynamics became stable, methoxamine hydrochloride was administered continuously from the left femoral vein. In order to increase the systemic vascular resistance and thus decrease the cardiac output, methoxamine hydrochloride was maintained at the volume of 5 to 10 μg/kg/min so that the cardiac output decreased by 20% or more in comparison with the cardiac output before the volume overload, and methoxamine hydrochloride was administered continuously until the completion of the experiment.
From the point, at which the cardiac output decreased by 20% or more after the initiation of the continuous administration of methoxamine hydrochloride in comparison with the cardiac output before the administration of lactated Ringer's solution and other hemodynamics became stable, physiological saline (0.3 mL/min) was administered from the right femoral vein for 30 minutes (preceding phase of administration). Then, the compound A, (11α,13E,15α)-9-oxo-11,15-dihydroxy-16-(3-methoxymethylphenyl)-17,18,19,20-tetranor-5-tiaprost-13-enoic acid methyl ester (the EP4 agonist described in Example 1 of WO2000/003980, abbreviated to […] below), and carperitide (atrial natriuretic peptide), nitroglycerin (a vasodilator), nicorandil (a vasodilator) and milrinone (a phosphodiesterase III inhibitor: a compound having a cardiac effect and a vasodilation effect), which are existing agents for treating heart failure, were each administered for 30 minutes with increasing the dose gradually from the right femoral vein at the doses in the following table. The administered groups (four examples each) and the doses are shown below.
The measurement of cardiac hemodynamics was conducted every 10 minutes both during the preceding phase of administration and during the continuous administration of each dose.
Through the catheter introducer inserted to the right femoral artery, a pig tale catheter was introduced and indwelled in the left ventricle and connected to a disposable blood pressure transducer, and the left ventricular pressure (LVP) was measured through an amplifier for the measurement. […]

[2] = test system: normal dog; experiment: Left ventricular action in a normal dog; type: in vivo
Text: From the above results, it was considered that milrinone is not always appropriate for administering to a diastolic heart failure patient with normal systolic function because milrinone has a strong cardiotonic action, while the compound A selectively improves left ventricular diastolic function as compared with the effect to improve systolic function and thus is also effective for a diastolic heart failure patient with normal systolic function as well as a systolic heart failure patient in which both diastolic function and systolic function are impaired.

[3] = test system: Dahl rat heart failure model; experiment: Cardiac function and survival rate using Dahl rat (hypertensive / chronic heart failure model); type: in vivo; settings: oral, two times a day for 90 days, compound A 300 μg/kg, milrinone 1000 μg/kg; for survival rate: FIG. 2; for left ventricular diastolic wall strain (DWS) index: FIG. 3
Experimental: A model of hypertensive heart failure, which is diastolic heart failure, was prepared by feeding solid feed for high salt load rat (corresponding to 8% salt) to 47-day-old male DIS/Eis rats (Dahl rats). Solid feed for normal feed rat (corresponding to 0.3% salt) was fed to a normal control group (10 examples).
The test compounds were orally administered repeatedly for 90 days two times a day with the dose of 5 mL/kg using a stomach tube to 13-week-old Dahl rats. The dose of the compound A was 300 μg/kg and the dose of milrinone was 1000 μg/kg (30 examples each).
The cardiac functions were measured with using an ultrasound imaging device under 2% isoflurane anesthesia by a general anesthesia device for an animal before the administration (12 weeks old: grouping value), on the 45th day of the administration and the 91st day of the administration. The hair of the chest area of a rat was removed and the changes in the left ventricular end-diastolic dimension, the left ventricular end-systolic dimension, the end-diastolic left ventricular anterior wall thickness, the end-diastolic left ventricular posterior wall thickness, the end-systolic left ventricular posterior wall thickness and the left ventricular posterior epicardial surface were measured with placing a linear probe on the chest area with M-mode. Further, the left ventricular ejection fraction (LVEF) and the left ventricular diastolic wall strain (DWS) index as the indication of left ventricular diastolic function were calculated.
The general state was observed once or twice a day throughout the experiment period, and dead or alive was confirmed and the general symptoms were recorded.

[4] = Toxicity, repeated oral administration to a dog for four weeks; type: in vivo; settings: dose up to 30 times the dose showing vasodilation effect on single administration
Text: Toxicity of the compound used for the agent of present invention is very low, and the compound is safe enough to be used as a medicine.

Row | SMILES | Peak Negative dP/dt Change Ratio (%) [1] [%] | Peak Positive dP/dt Change Ratio (%) [1] [%] | left ventricular diastolic / systolic action in a normal dog [2] | survival rate [3] | left ventricular diastolic wall strain (DWS) index [3] | PaO2 (arterial oxygen pressure) change ratio ([1]; continuous iv 3, 10 ng/kg/min) [%] | increase of cardiac output ([1]; continuous iv 3, 10 ng/kg/min) | urine volume change ratio ([1]; continuous iv 3, 10 ng/kg/min) [%] | Systemic Vascular Resistance Change Ratio (%) [1] [%] | Left Ventricular End-Diastolic Pressure Change Ratio (%) [1] [%] | toxicity [4]
1 | CC[C@H](C)[C@@H]1NC(=O)[C@H](CCCNC(=N)N)NC(=O)[C@H](CC(=O)O)NC(=O)[C@H](CCSC)NC(=O)[C@H](CCCNC(=N)N)NC(=O)CNC(=O)CNC(=O)[C@H](Cc2ccccc2)NC(=O)[C@@H](NC(=O)[C@H](CO)NC(=O)[C@H](CO)NC(=O)[C@H](CCCNC(=N)N)NC(=O)[C@H](CCCNC(=N)N)NC(=O)[C@H](CC(C)C)NC(=O)[C@@H](N)CO)CSSC[C@@H](C(=O)N[C@@H](CC(N)=O)C(=O)N[C@@H](CO)C(=O)N[C@@H](Cc2ccccc2)C(=O)N[C@@H](CCCNC(=N)N)C(=O)N[C@@H](Cc2ccc(O)cc2)C(=O)O)NC(=O)CNC(=O)[C@H](CC(C)C)NC(=O)CNC(=O)[C@H](CO)NC(=O)[C@H](CCC(N)=O)NC(=O)[C@H](C)NC(=O)CNC1=O [Carperitide, carperitide] | −6 | – | – | – | – | – | – | – | – | – | –
2 | O=[N+]([O-])OCC(CO[N+](=O)[O-])O[N+](=O)[O-] [Nitroglycerin, nitroglycerin] | −8 | – | – | – | – | – | – | – | – | – | –
3 | Cc1[nH]c(=O)c(C#N)cc1-c1ccncc1 [Milrinone, milrinone] | 23 | 38 | showed a strong left ventricular systolic effect | the degree of the improvement of the survival rate was small | did not improve DWS | – | – | – | – | – | –
4 | O=C(O)CCCSCCN1C(=O)CC[C@@H]1/C=C/[C@@H](O)Cc1ccc(F)cc1 [Compound A, 4-[(2-{(2R)-2-[(1E,3S)-4-(4-fluorophenyl)-3-hydroxy-1-buten-1-yl]-5-oxo-1-pyrrolidinyl}ethyl)thio]butanoic acid] | 48 | 16 | did not show left ventricular diastolic action or left ventricular systolic action | drastically improved the survival rate | remarkably improved DWS | 111.5 | about 60% | 145.4 | −34 | −42 | not found to be toxic
5 | O=C(O)CCCSCCN1C(=O)CC[C@@H]1CC[C@@H](O)c1cccc(Oc2cccc(F)c2)c1 [Compound D] | −5 | −9 | – | – | – | – | – | – | −42 | −46 | –
6 | COCc1cccc(CC(O)/C=C/C2C(O)CC(=O)C2CCSCCCC(=O)OC)c1 (stereo not drawn) [Compound B, (11α,13E,15α)-9-oxo-11,15-dihydroxy-16-(3-methoxymethylphenyl)-17,18,19,20-tetranor-5-tiaprost-13-enoic acid methyl ester] | −3 | −4 | – | – | – | – | – | – | −43 | −41 | –
7 | O=C(O)CCCCCCN1C(=O)CC[C@@H]1CC[C@@H](O)Cc1cccc(C(F)(F)F)c1 [Compound C] | −1 | 2 | – | – | – | – | – | – | −14 | −37 | –
8 | O=C(NCCO[N+](=O)[O-])c1cccnc1 [Nicorandil, nicorandil] | −7 | – | – | – | – | – | – | – | – | – | –
